Measurements taken from patent US6528532B1, “Urea derivatives as HIV aspartyl protease inhibitors” (Pharmacor Inc., priority 2002, dated 2003).

Key:
[1] = target: HIV protease (Human immunodeficiency virus type 1 group M subtype B, UniProt P04585); assay: Enzymatic (FRET fluorometric) assay for determining the inhibition constant (Ki) of compounds targeting the HIV protease; type: biochemical; details: Ki, FRET substrate (EDANS/DABCYL), equation of Henderson
Excerpt: Enzymatic Assay for Determining the Inhibition Constant (Ki) of Synthetic Compounds Targeting the HIV Protease
This is a fluorometric assay based on the cleavage by protease of a substrate carrying a donor group (EDANS) and an acceptor group (DABCYL) on each side of the cleavage site, interacting together through fluorescence resonance energy transfer (FRET) as described by Matayoshi et al. (Science 247:[…], 1990).
After calculation of Vo and Vi, the inhibition constant (Ki) of the compound is determined using the equation of Henderson: [formula]
where Vo=the enzyme's initial velocity
Vi=the enzyme velocity in the presence of the inhibitory compound,
[I]=inhibitor concentration, [S]=substrate concentration,
Km=Michaelis-Menten constant and Kiapp=apparent Ki
Graphs are traced and the Ki determined using GraphPad Prism software v. 3.0.

[2] = in vitro; type: cell-based; details: human
Procedure: To evaluate the EC50 of our compounds, various drug concentrations are incubated with the infected cell for six days and then the metabolic activity of the cells is monitored by the MTT assay. (See A. J. Japour et al, Antimicrobial Agents and Chemotherapy, 37, 1095-1101, 1993 and R. Pauwels et al. Journal of Virological Methods, 20, 309-321, 1988).
We use the laboratory viral strain NL4.3 as wild type virus and the cell line used is MT-4 which is a T-cell line highly sensitive to HIV-1. We also use some WT clinical strains. To address the resistance issue we assay the inhibitors with NL4.3 mutants which are designed to be resistant to specific commercially available inhibitors.
The same MTT assay is used to evaluate the CCIC50 (cell culture IC50) of our compounds except that the virus is omitted.

In the case of `Cc1ccc(S(=O)(=O)N(CC(C)C)[C@H](CO)CCCCNC(=O)N(Cc2ccccc2)Cc2ccccc2[N+](=O)[O-])cc1` [Example 59, (2S) 2-N-Isobutyl-2-N-(4-methylbenzenesulfonyl)-6-N-[N′-benzyl-N′-(2-nitrobenzyl)aminocarbonyl]-2,6-diaminohexanol], the Ki [1] is reported as 1.7 nM and the IC50 at 6 days [2] is reported as 4600 nM.
In the case of `CC(C)CN([C@H](CO)CCCCNC(=O)N(Cc1ccc2c(c1)OCO2)Cc1ccc2c(c1)OCO2)S(=O)(=O)c1ccc(N)cc1` [Example 85, (2S) 2-N-(4-Aminobenzenesulfonyl)-2-N-isobutyl-6-N-(N′,N′-dipiperonylaminocarbonyl)-2,6-diaminohexanol], the Ki [1] is reported as 1.7 nM and the IC50 at 6 days [2] is reported as 13100 nM.
